The subject of one experiment is A549 cells. The experiment is described as follows: Cell growth inhibitory activity using A549 cells (Test Example 6). In kind it is cell-based, Human. The settings on record: for inhibition at 30 µM: Homo sapiens, A549, compound 30 µM, 5% serum, 40 hr, counting kit-8, read-out: Cell growth inhibition rate (%); for inhibitory activity against cell growth of A549 cells: as compared with Example 274 described in WO 03/00660; for inhibitory activity against cell growth or BMP4 signals: as compared with Example 261 or Example 269 described in WO 03/00660. As to the method:
Human lung cancer epithelial cells (A549) (available from ATCC) were suspended to a concentration of 3 × 10^4/ml in a DMEM/F12 medium containing 10%FCS, and the suspension was inoculated in 100 µl portions in wells of a 96-well plate. On the following day, a stock solution of the test compound which had been adjusted to 10 mM with DMSO was adjusted with a serum-free DMEM/F12 medium to a dose (60 µM) which was twice the evaluation concentration. After removing the medium inoculated in the 96 wells on the previous day, the solution was added in 50 µl portions to the plate. Next, a DMEM/F12 medium containing 10% serum was added in 50 µl portions to the wells, followed by culturing at 37°C for 40 hr. The final concentration of the serum and the concentration of the evaluation compound were 5% and 30 µM, respectively. The compounds according to the present invention synthesized in the working example were used as the test compound. […]
After 40 hr, the culture was removed, and 100 µl of a solution prepared by diluting counting kit-8 (purchased from Dojindo) with a serum-free F12 medium by 10 times was added, followed by culturing at 37°C for 20 to 30 min. After the confirmation of suitable color development, the absorbance at 450 nm was measured with ARVO (purchased from Wallach Bethold Japan). The cell growth inhibition in the test compound added wells were determined by presuming the absorbance value in the test compound-free wells to be 0% and the absorbance value in the cell-free wells to be 100%.

The subject of the next experiment is TGFβ signal. Description: TGFβ signal inhibitory activity, (SBE)4-Luc reporter in A549 cells (Test Examples 1A and 1B). In kind it is cell-based, human. The settings on record: Homo sapiens, A549, TGFβ-1 2 ng/ml, 4 hr, Table 1A, read-out: TGFβ inhibition rate, %; for inhibition at 3 µM: test compound 3 µM; for inhibition at 10 µM: test compound 10 µM. In a few lines: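 Compounds at 3 µM and 10 µM (some 1 µM) were added with 2 ng/ml TGFβ-1 to A549 cells stably expressing an SBE-driven luciferase, then cultured 4 hr. Chemiluminescent luciferase signal gave % inhibition versus TGFβ-alone and no-TGFβ controls.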

The next experiment concerns BMP4 signal. The experiment is described as follows: BMP signal inhibitory activity, p(GCCG)12-Luc reporter in HepG2 cells (Test Example 7). In kind it is cell-based, human. The settings on record: for inhibitory activity against BMP4 signals: as compared with Example 274 described in WO 03/00660; for Selectivity for BMP (times): Inhibitory activity against BMP4 signal (IC50)/Inhibitory activity against TGFβ signal (IC50), HepG2 reporter cells, BMP4 20 ng/ml, TGFβ-1 2 ng/ml, 4 hr. An excerpt: The inhibitory activity of the compounds according to the present invention against BMP signals was studied using a cell line through which TGFb and BMP signals can be simultaneously observed. Specifically, the cell lines capable of detecting the two signal was generated by transfecting reporter plasmids for detection of TGFb and BMP signals into a human hepatocarcinoma cell line HepG2(available from ATCC) and was used as evaluation cells. For detection of TGF-beta signal, the plasmid having four tandem binding sequences of Smad2/3, TGF-beta signal transducers, to the upstream of a luciferases gene were used as a reporter plasmid (p(SBE)4-Luc/hygro). For detection of BMP signal, the plasmid having twelve tandem binding sequences of Smadl/5/8, BMP signal transducers, to the upstream of a luciferases gene were used as a reporter plasmid (p(GCCG)12-Luc/neo), according to the method described in Mol Biol Cell. 2000 11(2): 555-65. The test compound and TGFβ-1 (2 ng/ml) or BMP4 (20 ng/ml) were added to the cells, and the mixture was cultured for 4 hr. The compounds according to the present invention synthesized in the working example were used as the test compound. […] After the culture, the luciferase activity of the cells was measured by chemiluminescence (Steady Glo (trademark) luciferase assay system, available from Promega). Likewise, the luciferase activity was measured as control for the culture of cells with only TGFβ or BMP4 added thereto and the culture of cells with the addition of none of TGFβ, BMP4 and the test compound. The inhibitory activity IC50 of the compounds against TGFβ and BMP4 was calculated based on the results of measurement, and the kinase selectivity for BMP4 was determined by the following method. Kinase selectivity for BMP4 (times) = Inhibitory activity against BMP4 signal (IC50)/Inhibitory activity against TGFβ signal (IC50)

A word on the inhibition: it is the change of the read-out against control, counted positive when it falls. As for `Cc1ccc(Oc2ccnc3ccc(OCCCO)cc23)c(-c2ncccn2)n1` [Compound 222, 3-[4-(6-Methyl-2-pyrimidin-2-yl-pyridin-3-yloxy)-quinolin-6-yloxy]-propan-1-ol], in the experiment with A549 cells, the inhibition at 30 µM came out at 6% and the “inhibitory activity against cell growth of A549 cells” value (shortened to “inhibitory activity … of A549 cells”) is “reduced inhibitory activity”. Besides, in the experiment with TGFβ signal, the inhibition at 3 µM was 91% and the inhibition at 10 µM is 100%. In the experiment on BMP4 signal, the “inhibitory activity against BMP4 signals” value is “reduced inhibitory activity”.
`CCc1ccc(Oc2ccnc3ccc(OCCOC(C)=O)cc23)c(-c2ncccn2)n1` [Compound 206, 2-[4-(6-Ethyl-2-pyrimidin-2-yl-pyridin-3-yloxy)-quinolin-6-yloxy]-ethyl acetate]: in the experiment on A549 cells, the inhibition at 30 µM is -1% and the “inhibitory activity … of A549 cells” value is recorded as “reduced inhibitory activity”. Moreover, the inhibition at 3 µM in the experiment with TGFβ signal was 89%. Further, in the experiment on BMP4 signal, the “inhibitory activity against BMP4 signals” value is listed as “reduced inhibitory activity”.
As to `Cc1ccc(Oc2ccnc3ccc(O)cc23)c(-c2ncccn2)n1` [Compound 201, 4-(6-Methyl-2-pyrimidin-2-yl-pyridin-3-yloxy)-quinolin-6-ol], in the experiment with A549 cells, the inhibition at 30 µM worked out at 2% and the “inhibitory activity … of A549 cells” value is recorded as “reduced inhibitory activity”. For the same compound, the inhibition at 3 µM in the experiment with TGFβ signal came out at 82%. Also, the “inhibitory activity against BMP4 signals” value in the experiment on BMP4 signal is on record as “reduced inhibitory activity”.
`Cc1ccc(Oc2ccnc3ccc(OCCO)cc23)c(-c2ncccn2)n1` [Compound 202, 2-[4-(6-Methyl-2-pyrimidin-2-yl-pyridin-3-yloxy)-quinolin-6-yloxy]-ethanol]: in the experiment with A549 cells, the inhibition at 30 µM was determined as 8% and the “inhibitory activity … of A549 cells” value is recorded as “reduced inhibitory activity”. Moreover, the inhibition at 3 µM in the experiment on TGFβ signal came out at 86%. In addition, in the experiment on BMP4 signal, the “Selectivity for BMP (times)” value came to 21.4 times and the “inhibitory activity against BMP4 signals” value is given as “reduced inhibitory activity”.
Consider `CCc1ccc(Oc2ccnc3ccc(O)cc23)c(-c2ccccn2)n1` [Compound 184, 4-(6-Ethyl-[2,2']bipyridinyl-3-yloxy)-quinolin-6-ol], for which, in the experiment with A549 cells, the inhibition at 30 µM was 8% and the “inhibitory activity against cell growth or BMP4 signals” value is “reduced inhibitory activity”. Moreover, in the experiment on TGFβ signal, the inhibition at 3 µM came to 100% and the inhibition at 10 µM amounted to 100%. Besides, the “Selectivity for BMP (times)” value with BMP4 signal was > 428 times.
Regarding `CCc1ccc(Oc2ccnc3ccc(OS(C)(=O)=O)cc23)c(-c2ccccn2)n1` [Compound 187, 4-(6-Ethyl-[2,2']bipyridinyl-3-yloxy)-quinolin-6-yl methanesulfonate], in the experiment with A549 cells, the inhibition at 30 µM is 0% and the “inhibitory activity against cell growth or BMP4 signals” value was “reduced inhibitory activity”. For the same compound, in the experiment with TGFβ signal, the inhibition at 3 µM turned out to be 100% and the inhibition at 10 µM turned out to be 100%. For the same compound, the “Selectivity for BMP (times)” value in the experiment with BMP4 signal worked out at 72 times.
For the compound `CCc1ccc(Oc2ccnc3cc(F)c(OCCO)cc23)c(-c2ncccn2)n1` [Compound 225, 2-[4-(6-Ethyl-2-pyrimidin-2-yl-pyridin-3-yloxy)-7-fluoro-quinolin-6-yloxy]-ethanol], in the experiment on A549 cells, the inhibition at 30 µM is 8% and the “inhibitory activity … of A549 cells” value is “reduced inhibitory activity”. In the experiment on TGFβ signal, the inhibition at 3 µM was 89% and the inhibition at 10 µM turned out to be 99%. The “inhibitory activity against BMP4 signals” value in the experiment with BMP4 signal was “reduced inhibitory activity”.
Consider `CCc1ccc(Oc2ccnc3ccc(OCCOC(C)=O)cc23)c(-c2ccccn2)n1` [Compound 182, 2-[4-(6-Ethyl-[2,2']bipyridinyl-3-yloxy)-quinolin-6-yloxy]-ethyl acetate], for which, in the experiment with A549 cells, the inhibition at 30 µM was -8% and the “inhibitory activity against cell growth or BMP4 signals” value is on record as “reduced inhibitory activity”. For the same compound, in the experiment on TGFβ signal, the inhibition at 3 µM came out at 99% and the inhibition at 10 µM was 100%. Also, the “Selectivity for BMP (times)” value in the experiment with BMP4 signal is given as 195 times.
As to `CCc1ccc(Oc2ccnc3cc(C(N)=O)c(O)cc23)c(-c2ncccn2)n1` [Compound 194, 4-(6-Ethyl-2-pyrimidin-2-yl-pyridin-3-yloxy)-6-hydroxy-quinoline-7-carboxylic acid amide], in the experiment with A549 cells, the inhibition at 30 µM is -15% and the “inhibitory activity … of A549 cells” value is “reduced inhibitory activity”. Besides, the inhibition at 3 µM in the experiment on TGFβ signal amounted to 60%. Also, in the experiment on BMP4 signal, the “Selectivity for BMP (times)” value is 51 times and the “inhibitory activity against BMP4 signals” value was “reduced inhibitory activity”.
Consider `CCc1ccc(Oc2ccnc3ccc(OCCO)cc23)c(-c2ncccn2)n1` [Compound 192, 2-[4-(6-Ethyl-2-pyrimidin-2-yl-pyridin-3-yloxy)-quinolin-6-yloxy]-ethanol], for which, in the experiment on A549 cells, the inhibition at 30 µM was determined as 3% and the “inhibitory activity … of A549 cells” value is given as “reduced inhibitory activity”. In the experiment on TGFβ signal, the inhibition at 3 µM worked out at 97% and the inhibition at 10 µM came out at 100%. Further, in the experiment on BMP4 signal, the “Selectivity for BMP (times)” value is recorded as > 176 times and the “inhibitory activity against BMP4 signals” value was “reduced inhibitory activity”.
As to `CCc1ccc(Oc2ccnc3ccc(OCCO)cc23)c(-c2ccccn2)n1` [Compound 181, 2-[4-(6-Ethyl-[2,2']bipyridinyl-3-yloxy)-quinolin-6-yloxy]-ethanol], in the experiment with A549 cells, the inhibition at 30 µM is -7% and the “inhibitory activity against cell growth or BMP4 signals” value is listed as “reduced inhibitory activity”. For the same compound, in the experiment with TGFβ signal, the inhibition at 3 µM is 100% and the inhibition at 10 µM stood at 100%. In the experiment with BMP4 signal, the “Selectivity for BMP (times)” value worked out at 308 times.
